Data as given in article PMC12264794, “Homoleptic complexes of titanium(IV) fused with O^N^O Schiff base derivatives: design, BSA–DNA interaction, molecular docking, DFT and cytotoxicity” (RSC Advances, 2025).

Key:
BSA = target: T1, BSA (Bos taurus, UniProt P02769); experiment: BSA site marker (ibuprofen, warfarin) fluorescence quenching; type: binding, bovine; details: 298 K; for Kb binding constant, BSA+Ibuprofen: site probe ibuprofen; for Kb binding constant, BSA + Warfarin: site probe warfarin
T1 construct: purchased Himedia Chemicals
Experimental: Fluorescence emission spectroscopy was used for site marker investigation, using an excitation wavelength of 280 nm. As they bind to the two most prevalent drug-binding sites, Sudlow sites I and II, two distinct site marker medications, warfarin (WAR) and ibuprofen (IBU), were utilized as particular site markers (probes) in this experiment. Separately, 10 mg of the site marker probes (WAR) and (IBU) were dissolved in PBS buffer. Subsequently, a known quantity of BSA was added to each probe stock solution to achieve a 5 mM concentration, and the mixture was maintained at 2 to 6 °C. The BSA + site marker binary solution was then titrated with different metal complex concentrations ranging from 0 to 80 μM, while maintaining constant binary solutions of BSA + IBU and BSA + WAR.[55,56]
In our experiment, fluorescence titration techniques were employed to determine the binding position of the BSA molecule. For the fluorescence titration, the excitation wavelength was […], and the emission was monitored between 300 and 500 nm where a fixed concentration of BSA (3 × 10^−6 M) and site markers (BSA + WAR) (BSA + IBU) were taken separately and titrated with the incremental addition of Ti-1-IS to Ti-6-IBr (0–100 μM). By comparing the Ksv values shown with and without site markers, the binding site of Ti(IV) complexes inside BSA was identified (ESI Table S3 ^†).
The Scatchard eqn (9) was used to examine the emission quenching data.

CT-DNA = experiment: Agarose gel electrophoresis, CT-DNA cleavage; type: biochemical, calf; details: complex at 3, 1.5 and 0.75 mM
Experimental: The interaction and effectiveness of the Ti(IV) complex on CT-DNA were investigated using the agarose gel electrophoresis technique. This was accomplished by incubating the reaction mixtures separately, each of which contained 20 μL of CT-DNA and 20 μL of titanium complexes in PBS buffer solution, at 310 K for one hour. The tracking […] dye (1 μL) and all of the prepared solutions (5 μL) were then combined and applied to the wells of a 1% agarose gel containing 1 mM ethidium bromide that was prepared well in advance. Then the reaction mixture of complexes and CT-DNA was loaded in the wells separately using 0.25% […] dye. The electrophoresis mobility experiment was then carried out in an EDTA-PBS buffer for 60 minutes at a constant electrical voltage of 100 V until the dye reached 50% of the gel distribution area. In order to evaluate the degree of DNA binding capacity of the Ti(IV) complexes, the resultant bands were finally captured on a camera using the AXYGEN digital camera Gel Documentation System under UV light.[49–51]
There are two types of cleavage of nucleic acid chains: enzymatic and non-enzymatic. Either the oxidative cleavage of deoxyribose residues or the hydrolysis of phosphodiester links, known as hydrolytic cleavage, can result in non-enzymatic cleavage. Strong Lewis acidic metal complexes with transition metals are the main source of hydrolytic cleavage. The hydrolysis of the phosphate backbone of the nucleic acid is facilitated by a metal–phosphate intermediate. In order to understand the catalytic mechanisms of natural nucleases and to develop medications that target nucleic acids, it is crucial to design and synthesize metal complexes that can hydrolytically cleave the phosphodiester link. Agarose gel electrophoresis was used to test the capacity of the complex to cleave CT-DNA.

MCF7 cells = experiment: MTT cytotoxicity assay, MCF7; type: cell-based, human; details: 48 h of drug exposure
Experimental: (§1) The in vitro cytotoxicity of the Ti(IV) complexes under investigation was investigated using MTT, a micro-titration colorimetric method. The in vitro cytotoxicity test of the Ti(IV) complexes was evaluated against the cervical cancer cell line (HeLa), human breast cancer cell line (MCF-7) and human kidney normal cell line (HEK-293).[65,66]
(§2) In the cytotoxicity assay, tetrazolium salt 3-[4,5-dimethylthiazol-2-yl]-2,5diphenyl tetrazolium bromide (MTT) was utilized to assess cell viability. The MTT powder was diluted in Dulbecco's PBS (stock solution of MTT (5 mg mL^−1)) to attain a final concentration of 0.5 mg mL^−1 and a […] was used to filter and sterilize the stock solution, which was then kept at 2–6 °C. In metabolically active cells, MTT is reduced to produce an insoluble purple formazan product. In the exponential phase, cells were taken out of the stored cultures after the 48-hour recovery period, following seeding onto 96-well plates at a density of 1 × 10^4 cells per well in 100 μL medium at 37 °C in a 95% air and 5% CO2 environment, and the cells were incubated for 12 hours. Cell lines were treated for 48 hours with Ti(IV) complexes at varying doses (9.5–300 μM) and cis-platin as a control (apart from normal cells). After 48 hours of incubation at 37 °C, the medium was removed and 100 μL of DMSO was added to dissolve the […], and the culture plates were shaken for five minutes. A Bio-Rad xMARK™ multi-well plate reader was used to measure the absorbance of each well at 570 nm. Using eqn (2), the percentage viability, which represents the relative viability of the treated cells in comparison to the control cells, was calculated, and the IC50 values and standard deviation of the substances under investigation were calculated in triplicate.2 [drawing 2]
(§3) An MTT assay was used to examine the cytotoxic effectiveness of the produced Ti(IV) complexes. After 48 hours of incubation, the cytotoxicity of Ti-1-IS to Ti-6-IBr was evaluated against human cancer cell lines, such as breast carcinoma (MCF7) and cervical cancer (HeLa), as well as the non-cancerous human embryonic kidney (HEK) cell line, by using the widely used therapeutic drug, cis-platin, as a positive control by following the standard protocol.

[1] = n-Octanol/water partition coefficient, shake flask method; type: physicochemical; details: partition coefficient of n-octanol/water
Experimental: Drugs were measured for oral bioavailability and cellular accumulation using their lipophilicity. This can be stated as the log P value of the n-octanol/water partition coefficient, which is an essential prerequisite for many in silico medicinal chemistry approaches. The n-octanol/water partition coefficient (log Po/w), where Po/w = the octanol/water partition coefficient, was analyzed using the shake flask method. The experimental log Po/w values of these complexes were discovered to be between 0.12 and 0.87 (ESI Fig. S60 ^† and Table 1).

HeLa cells = experiment: MTT cytotoxicity assay, HeLa; type: cell-based, human; details: for IC50: 48 h of drug exposure; for Selectivity: HeLa cell lines
Experimental: as §1, §2, §3

T1 sequence (P02769 25-607): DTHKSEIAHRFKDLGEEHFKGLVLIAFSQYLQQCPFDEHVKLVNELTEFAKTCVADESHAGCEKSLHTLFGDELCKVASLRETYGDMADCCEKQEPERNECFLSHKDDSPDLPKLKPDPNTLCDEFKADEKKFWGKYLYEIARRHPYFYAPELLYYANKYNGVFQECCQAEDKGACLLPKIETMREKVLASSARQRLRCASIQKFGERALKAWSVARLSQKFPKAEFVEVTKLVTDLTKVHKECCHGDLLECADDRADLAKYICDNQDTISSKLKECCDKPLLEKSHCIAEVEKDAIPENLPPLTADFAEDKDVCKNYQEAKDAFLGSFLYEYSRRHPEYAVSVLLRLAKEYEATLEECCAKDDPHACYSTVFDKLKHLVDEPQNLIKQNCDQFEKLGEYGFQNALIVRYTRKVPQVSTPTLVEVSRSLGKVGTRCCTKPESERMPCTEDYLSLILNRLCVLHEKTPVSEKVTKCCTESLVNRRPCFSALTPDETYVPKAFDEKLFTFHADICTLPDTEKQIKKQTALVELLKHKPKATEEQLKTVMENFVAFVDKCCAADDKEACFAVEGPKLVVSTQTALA

Row | SMILES | Kb binding constant, BSA+Ibuprofen (BSA) [M⁻¹] | Kb binding constant, BSA + Warfarin (BSA) [M⁻¹] | Log Po/w [1] | DNA cleavage activity (CT-DNA) | IC50 (MCF7 cells) [µM] | IC50 (HeLa cells) [µM] | Selectivity (HeLa cells)
1 | [O-]C(=NN=Cc1c([O-])ccc2ccccc12)c1ccncc1.[O-]C(=NN=Cc1c([O-])ccc2ccccc12)c1ccncc1.[Ti+4] [Ti-2-IN] | 150 | 690 | 0.78 | less cleavage activity | 85.04 ± 0.5 | 74.04 ± 0.5 | –
2 | Brc1ccc2c(c1)C=NN=C(c1ccncc1)[O][Ti]1([O]C(c3ccncc3)=NN=Cc3cc(Br)ccc3[O]1)[O]2 (centres unmarked) [Ti-6-IBr] | 540 | 390 | 0.15 | comparatively higher DNA binding cleavage in higher concentration | 84.67 ± 0.5 | 78.64 ± 0.2 | –

Now from value to compound, other results behind:

Row | Kb binding constant, BSA+Ibuprofen (BSA) [M⁻¹] | Kb binding constant, BSA + Warfarin (BSA) [M⁻¹] | Log Po/w [1] | SMILES | DNA cleavage activity (CT-DNA) | IC50 (MCF7 cells) [µM] | IC50 (HeLa cells) [µM] | Selectivity (HeLa cells)
3 | 340 | 480 | 0.87 | [O-]C(=NN=Cc1ccccc1[O-])c1ccncc1.[O-]C(=NN=Cc1ccccc1[O-])c1ccncc1.[Ti+4] [Ti-1-IS] | less cleavage activity | 109.22 ± 0.1 | 61.76 ± 0.1 | –
4 | 500 | 580 | 0.13 | COc1cccc(C=NN=C([O-])c2ccncc2)c1[O-].COc1cccc(C=NN=C([O-])c2ccncc2)c1[O-].[Ti+4] [Ti-3-IO] | higher DNA cleavage even at the lowest concentration | 102.9 ± 0.3 | 27.2 ± 1.1 | > 29
5 | 370 | 400 | 0.12 | [O-]C(=NN=Cc1cc(F)ccc1[O-])c1ccncc1.[O-]C(=NN=Cc1cc(F)ccc1[O-])c1ccncc1.[Ti+4] [Ti-4-IF] | higher DNA cleavage even at the lowest concentration | 109.8 ± 0.2 | 47.3 ± 0.5 | –
6 | 350 | 160 | 0.31 | [O-]C(=NN=Cc1cc(Cl)ccc1[O-])c1ccncc1.[O-]C(=NN=Cc1cc(Cl)ccc1[O-])c1ccncc1.[Ti+4] [Ti-5-ICl] | comparatively higher DNA binding cleavage in higher concentration | 65.2 ± 1.2 | 24.2 ± 0.7 | > 26
